SMILES strings stand for the structures.

The values below come from patent US20260078120A1, “SUBSTITUTED PYRIDOPYRIMIDINONES” (MIRATI THERAPEUTICS, INC., priority 2022, published 2026).

Assay [1] relates to T47D (PI3Kα H1047R mutant) cells. As to the kind of experiment: CellTiter-Glo 2.0 luminescent cell viability assay, 72 hours, T47D cells. It is filed as cell-based. The following applies: Homo sapiens, T47D, 72 h, T47D (PI3Kα H1047R mutant) cells, CellTiter-Glo, approximately 72 hours; read-out: T47D (H1047R mutant) Viability IC50. The method, then: This Example illustrates that exemplary compounds of the present invention decrease the viability of cells.
(§1) The ability of a compound of Formula (I) to decrease the viability of cells was measured using CellTiter-Glo 2.0 (CTG) Luminescent Cell Viability Assay (#G9241) obtained from Promega (Madison, WI).
To prepare assay plates for viability assays, cells were trypsinized, resuspended in fresh media, and viable cells were counted utilizing trypan blue exclusion. T47D, SKBR3, or MKN1 cells were seeded at 1000 cells in 30 μl per well in a solid white flat bottom 384 cell culture plate (Perkin Elmer #6007680) and incubated at 37° C. overnight.
(§2) Assay day 1, cells were dosed using an Echo Liquid Handler (Beckman Coulter) with compounds at a 10 um starting concentration and serially diluted (1:4) for a total of 10 concentrations. Cells were incubated for approximately 72 hours with the compounds (solubilized in DMSO) at 37° C. After 72 hours of treatment, cell plates were equilibrated to room temperature before adding 15 μl of CTG to each well, plates were then covered in aluminum foil to protect from light, incubated at room temperature for 30 minutes on a microtiter plate shaker, and luminescence readings were collected using a CLARIOstar microplate reader (BMG Labtech, Germany). Percent of vehicle control values were plotted as log (inhibitor) vs. response-Variable slope (four parameters) for curve fitting and IC50 values were determined using XLfit.

Assay [2] has as its system SKBR3 (PI3Kα wild type) cells. As to the kind of experiment: CellTiter-Glo 2.0 luminescent cell viability assay, 72 hours, SKBR3 cells. It counts as cell-based. Conditions: Homo sapiens, SK-BR-3, 72 h, SKBR3 (PI3Kα wild type) cells, CellTiter-Glo, approximately 72 hours; read-out: SKBR3 (WT) Viability IC50. The method, then:
as §1
To prepare assay plates for viability assays, cells were trypsinized, resuspended in fresh media, and viable cells were counted utilizing trypan blue exclusion.
as §2
On the technique in general: Cellular ATP, detected with luciferase, serves as a proxy for viable cell number.

As a reminder, the IC50 is the concentration that inhibits the measured activity by half. For the compound `Cc1cc([C@@H](C)Nc2ccccc2C(=O)O)c2nc(N3CC4C5CCC(CC5)C4C3)c(C)c(=O)n2c1` (stereo partly drawn) [Example 10-133, 2-(((1R)-1-(3,7-dimethyl-2-(octahydro-2H-4,7-ethanoisoindol-2-yl)-4-oxo-4H-pyrido[1,2-a]pyrimidin-9-yl)ethyl)amino)benzoic acid], the IC50 was 55.4 nM in assay [1] and > 10000 nM in assay [2].

With `Cc1cc([C@@H](C)Nc2ccccc2C(=O)O)c2nc(N3Cc4ccc(F)cc4C3)c(C)c(=O)n2c1` [Example 10-134, (R)-2-((1-(2-(5-fluoroisoindolin-2-yl)-3,7-dimethyl-4-oxo-4H-pyrido[1,2-a]pyrimidin-9-yl)ethyl)amino)benzoic acid], the half-inhibitory concentration (IC50) in assay [1] is 56.6 nM; in assay [2], > 10000 nM.

On to `Cc1cc([C@@H](C)Nc2ccccc2C(=O)O)c2nc(N3CCC(O)(C(C)C)C3)c(C)c(=O)n2c1` (stereo partly drawn) [Example 10-135, 2-(((1R)-1-(2-(3-hydroxy-3-isopropylpyrrolidin-1-yl)-3,7-dimethyl-4-oxo-4H-pyrido[1,2-a]pyrimidin-9-yl)ethyl)amino)benzoic acid], for which the IC50 in assay [1] was 61 nM; in assay [2], > 10000 nM.

With `Cc1cc([C@@H](C)Nc2ccccc2C(=O)O)c2nc(N3CC4CC3CC4C)c(C)c(=O)n2c1` (stereo partly drawn) [Example 10-136, 2-(((1R)-1-(3,7-dimethyl-2-(5-methyl-2-azabicyclo[2.2.1]heptan-2-yl)-4-oxo-4H-pyrido[1,2-a]pyrimidin-9-yl)ethyl)amino)benzoic acid], the IC50 in assay [1] is 64.2 nM; in assay [2], > 10000 nM.

`Cc1cc([C@@H](C)Nc2ccccc2C(=O)O)c2nc(N3Cc4ccc(CO)cc4C3)c(C)c(=O)n2c1` [Example 10-137, (R)-2-((1-(2-(5-(hydroxymethyl)isoindolin-2-yl)-3,7-dimethyl-4-oxo-4H-pyrido[1,2-a]pyrimidin-9-yl)ethyl)amino)benzoic acid]: the IC50 in assay [1] was 69.5 nM; in assay [2] it was > 10000 nM.

For `Cc1cc([C@@H](C)Nc2ccccc2C(=O)O)c2nc(N3CCC4(CCOC4)C3)c(C)c(=O)n2c1` (stereo partly drawn) [Example 10-138, 2-(((1R)-1-(3,7-dimethyl-4-oxo-2-(2-oxa-7-azaspiro[4.4]nonan-7-yl)-4H-pyrido[1,2-a]pyrimidin-9-yl)ethyl)amino)benzoic acid], the half-inhibitory concentration (IC50) in assay [1] was 71.5 nM; in assay [2] it was > 10000 nM.

In the case of `COc1cc2c(cc1OC)CN(c1nc3c([C@@H](C)Nc4ccccc4C(=O)O)cc(C)cn3c(=O)c1C)C2` [Example 10-139, (R)-2-((1-(2-(5,6-dimethoxyisoindolin-2-yl)-3,7-dimethyl-4-oxo-4H-pyrido[1,2-a]pyrimidin-9-yl)ethyl)amino)benzoic acid], the IC50 was 74.3 nM in assay [1] and > 10000 nM in assay [2].

Take `Cc1cc([C@@H](C)Nc2ccccc2C(=O)O)c2nc(N3CCC(c4ccccn4)C3)c(C)c(=O)n2c1` (stereo partly drawn) [Example 10-142, 2-(((1R)-1-(3,7-dimethyl-4-oxo-2-(3-(pyridin-2-yl)pyrrolidin-1-yl)-4H-pyrido[1,2-a]pyrimidin-9-yl)ethyl)amino)benzoic acid]: the IC50 was 80.1 nM in assay [1] and > 10000 nM in assay [2].

For `Cc1cc([C@@H](C)Nc2ccccc2C(=O)O)c2nc(N3CCC4(CCC(O)C4)CC3)c(C)c(=O)n2c1` (stereo partly drawn) [Example 10-143, 2-(((1R)-1-(2-(2-hydroxy-8-azaspiro[4.5]decan-8-yl)-3,7-dimethyl-4-oxo-4H-pyrido[1,2-a]pyrimidin-9-yl)ethyl)amino)benzoic acid], the IC50 in assay [1] is 83.1 nM; in assay [2], > 10000 nM.

For the compound `Cc1cc([C@@H](C)Nc2ccccc2C(=O)O)c2nc(N3CC4(CO)CCCC3C4)c(C)c(=O)n2c1` (stereo partly drawn) [Example 10-144, 2-(((1R)-1-(2-(1-(hydroxymethyl)-6-azabicyclo[3.2.1]octan-6-yl)-3,7-dimethyl-4-oxo-4H-pyrido[1,2-a]pyrimidin-9-yl)ethyl)amino)benzoic acid], the IC50 is 91.3 nM in assay [1] and > 10000 nM in assay [2].

For `Cc1cc([C@@H](C)Nc2ccccc2C(=O)O)c2nc(N3CC4CC4(C(F)(F)F)C3)c(C)c(=O)n2c1` (stereo partly drawn) [Example 10-145, 2-(((1R)-1-(3,7-dimethyl-4-oxo-2-(1-(trifluoromethyl)-3-azabicyclo[3.1.0]hexan-3-yl)-4H-pyrido[1,2-a]pyrimidin-9-yl)ethyl)amino)benzoic acid], the IC50 in assay [1] is 98.5 nM; in assay [2], > 10000 nM.

For the compound `Cc1cc([C@@H](C)Nc2ccccc2C(=O)O)c2nc(N3CC4CCC(C3)C4O)c(C)c(=O)n2c1` (stereo partly drawn) [Example 10-146, 2-(((1R)-1-(2-(8-hydroxy-3-azabicyclo[3.2.1]octan-3-yl)-3,7-dimethyl-4-oxo-4H-pyrido[1,2-a]pyrimidin-9-yl)ethyl)amino)benzoic acid], the IC50 in assay [1] was 100 nM; in assay [2], > 10000 nM.

Take `Cc1cc([C@@H](C)Nc2ccccc2C(=O)O)c2nc(N3CC4CCC3C(O)C4)c(C)c(=O)n2c1` (stereo partly drawn) [Example 10-147, 2-(((1R)-1-(2-(6-hydroxy-2-azabicyclo[2.2.2]octan-2-yl)-3,7-dimethyl-4-oxo-4H-pyrido[1,2-a]pyrimidin-9-yl)ethyl)amino)benzoic acid]: the IC50 was 107 nM in assay [1] and > 10000 nM in assay [2].

Regarding `Cc1cc([C@@H](C)Nc2ccccc2C(=O)O)c2nc(N3CC45COCC4(COC5)C3)c(C)c(=O)n2c1` (stereo partly drawn) [Example 10-148, 2-(((R)-1-(2-((3aS,6aS)-1H,3H,4H-3a,6a-(methanooxymethano)furo[3,4-c]pyrrol-5(6H)-yl)-3,7-dimethyl-4-oxo-4H-pyrido[1,2-a]pyrimidin-9-yl)ethyl)amino)benzoic acid], the IC50 in assay [1] was 108 nM; in assay [2], > 10000 nM.

On to `Cc1cc([C@@H](C)Nc2ccccc2C(=O)O)c2nc(N3CCC(C(C)(C)C)n4nccc43)c(C)c(=O)n2c1` (stereo partly drawn) [Example 11-13, 2-(((1R)-1-(2-(7-(tert-butyl)-6,7-dihydropyrazolo[1,5-a]pyrimidin-4(5H)-yl)-3,7-dimethyl-4-oxo-4H-pyrido[1,2-a]pyrimidin-9-yl)ethyl)amino)benzoic acid], for which the IC50 in assay [1] is 324 nM; in assay [2], > 10000 nM.

As to `Cc1cc([C@@H](C)Nc2ccccc2C(=O)O)c2nc(N3CCC(c4ccccc4)C3)c(C)c(=O)n2c1` (stereo partly drawn) [Example 11-14, 2-(((1R)-1-(3,7-dimethyl-4-oxo-2-(3-phenylpyrrolidin-1-yl)-4H-pyrido[1,2-a]pyrimidin-9-yl)ethyl)amino)benzoic acid], the IC50 is 233 nM in assay [1] and > 10000 nM in assay [2].

`Cc1cc([C@@H](C)Nc2ccccc2C(=O)O)c2nc(N3Cc4nc(C)sc4C3)c(C)c(=O)n2c1` [Example 11-15, (R)-2-((1-(3,7-dimethyl-2-(2-methyl-4,6-dihydro-5H-pyrrolo[3,4-d]thiazol-5-yl)-4-oxo-4H-pyrido[1,2-a]pyrimidin-9-yl)ethyl)amino)benzoic acid]: the values for the IC50 in assay [1] and in assay [2] were 156 nM and > 10000 nM, respectively.

In the case of `Cc1cc([C@@H](C)Nc2ccccc2C(=O)O)c2nc(N3CC(c4ccccn4)C3)c(C)c(=O)n2c1` [Example 11-16, (R)-2-((1-(3,7-dimethyl-4-oxo-2-(3-(pyridin-2-yl)azetidin-1-yl)-4H-pyrido[1,2-a]pyrimidin-9-yl)ethyl)amino)benzoic acid], the values for the IC50 in assay [1] and in assay [2] were 389 nM and > 10000 nM, respectively.

Turning to `Cc1ccc2c(c1)CN(c1nc3c([C@@H](C)Nc4ccccc4C(=O)O)cc(C)cn3c(=O)c1C)C2` [Example 11-17, (R)-2-((1-(3,7-dimethyl-2-(5-methylisoindolin-2-yl)-4-oxo-4H-pyrido[1,2-a]pyrimidin-9-yl)ethyl)amino)benzoic acid], the IC50 in assay [1] is 796 nM; in assay [2], > 10000 nM.

As for `Cc1cc([C@@H](C)Nc2ccccc2C(=O)O)c2nc(N3CC(c4ccccc4)C3)c(C)c(=O)n2c1` [Example 11-18, (R)-2-((1-(3,7-dimethyl-4-oxo-2-(3-phenylazetidin-1-yl)-4H-pyrido[1,2-a]pyrimidin-9-yl)ethyl)amino)benzoic acid], the IC50 in assay [1] was 416 nM; in assay [2], > 10000 nM.

Regarding `Cc1cc([C@@H](C)Nc2ccccc2C(=O)O)c2nc(N3Cc4ccccc4C3CO)c(C)c(=O)n2c1` (stereo partly drawn) [Example 11-19, 2-(((1R)-1-(2-(1-(hydroxymethyl)isoindolin-2-yl)-3,7-dimethyl-4-oxo-4H-pyrido[1,2-a]pyrimidin-9-yl)ethyl)amino)benzoic acid], the IC50 in assay [1] is 173 nM; in assay [2], > 10000 nM.

Turning to `Cc1cc([C@@H](C)Nc2ccccc2C(=O)O)c2nc(N3CCC(C4CCC4)CC3)c(C)c(=O)n2c1` [Example 11-20, (R)-2-((1-(2-(4-cyclobutylpiperidin-1-yl)-3,7-dimethyl-4-oxo-4H-pyrido[1,2-a]pyrimidin-9-yl)ethyl)amino)benzoic acid], the IC50 was 316 nM in assay [1] and > 10000 nM in assay [2].
